According to patent US8495760B2, “Atomic force microscope manipulation of living cells” (The Board of Trustees of the Leland Stanford Junior …, priority 2010, dated 2013):

Legend:
iPSC-CM = assay: AFM measurement of beat force and beat rate of solitary iPSC-derived cardiomyocytes; assay type: cell-based, human
Excerpt: (§1) In step 1441, the nanoscale tip of the microscale cantilever of the AFM is controlled to apply gentle pressure to a location on the cardiomyocyte. […] In experimental embodiments described in more detail below, one or more cardiomyocytes were gently contacted by the cantilever tip with 100 pN of force, producing a typical cellular indentation of about 200 nm to about 500 nm. In various embodiments the contact force falls in a range from about 0.05 to about 1 nN. Thus, in some embodiments, a method includes operating a controller for the microscale cantilever to cause the nanoscale tip to contact the cardiomyocyte at a predetermined pressure.
(§2) In step 1443, the indentation is measured and the vertical deflection feedback is turned off to allow the cantilever to move with the contractions of the beating cardiomyocyte. […]
(§3) In step 1445, the time history of vertical deflection of the cantilever at the location on the cell is measured and recorded. FIG. 15 is a graph 1500 that illustrates an example measured force time series when the AFM cantilever interacts with the living cardiomyocyte, according to an embodiment. […]
(§4) In step 1447, beat characteristics of the cell are determined. For example, the beat force, duration (width) and rate (frequency) are determined based on the time history of vertical deflection in trace 1510. […]

hESC-CM = assay: AFM measurement of beat force and beat rate of solitary hESC-derived cardiomyocytes; assay type: cell-based, human
Excerpt: as §1, §2, §3, §4

NC[C@H](O)c1ccc(O)c(O)c1 [norepinephrine, 4-[(1R)-2-amino-1-hydroxyethyl]benzene-1,2-diol]
beats faster than a cutoff of 1.7 beats/s (iPSC-CM; iPSC-CM after applying NE 100 μmol/L, 6% prior to treatment): 21%
contraction force (beat force) after treatment (iPSC-CM; solitary iPSC-CM, norepinephrine 100 μmol/L, immediately following treatment, before treatment 0.18±0.06 nN, p<0.001): 0.48±0.23 nN
effect on the beat rate (hESC-CM; hESC-CM after treatment with norepinephrine 100 μmol/L): minimal effect
contraction force (beat force) after treatment (hESC-CM; solitary hESC-CM, norepinephrine 100 μmol/L, immediately following treatment, before treatment 0.097±0.019 nN, p<0.001): 0.31±0.03 nN
